Target: Serine/threonine-protein kinase B-raf (Homo sapiens, UniProt P15056)
Test: Inhibition of human recombinant his6-tagged B-Raf expressed in Sf9 cells assessed as inhibition of MEK1 phosphorylation after 60 mins

Serine/threonine-protein kinase B-raf, sequence (P15056 whole entry): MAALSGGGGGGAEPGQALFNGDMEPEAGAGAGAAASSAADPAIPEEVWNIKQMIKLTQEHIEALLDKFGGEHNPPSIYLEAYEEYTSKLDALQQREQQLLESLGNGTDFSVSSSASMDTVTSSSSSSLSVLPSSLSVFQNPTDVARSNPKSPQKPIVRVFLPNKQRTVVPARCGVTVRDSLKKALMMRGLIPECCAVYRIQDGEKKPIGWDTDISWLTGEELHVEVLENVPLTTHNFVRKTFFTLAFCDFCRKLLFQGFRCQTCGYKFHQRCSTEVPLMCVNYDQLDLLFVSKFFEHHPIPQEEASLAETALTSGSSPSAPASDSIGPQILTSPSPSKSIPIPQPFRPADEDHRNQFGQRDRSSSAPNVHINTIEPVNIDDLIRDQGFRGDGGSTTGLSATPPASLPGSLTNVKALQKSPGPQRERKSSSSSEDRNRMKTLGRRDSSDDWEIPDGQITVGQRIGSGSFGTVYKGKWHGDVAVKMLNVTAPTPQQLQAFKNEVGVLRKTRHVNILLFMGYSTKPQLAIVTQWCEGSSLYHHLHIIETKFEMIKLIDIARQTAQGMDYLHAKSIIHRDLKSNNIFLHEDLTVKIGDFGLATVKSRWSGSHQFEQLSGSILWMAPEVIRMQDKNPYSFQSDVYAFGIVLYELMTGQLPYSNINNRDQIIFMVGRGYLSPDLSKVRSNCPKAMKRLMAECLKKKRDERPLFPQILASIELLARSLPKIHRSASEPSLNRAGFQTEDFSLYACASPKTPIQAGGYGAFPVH

| Structure (SMILES) | IC50 |
| --- | --- |
| O=C(Nc1cccc(Nc2cc3c(cc2Cl)C(=O)NC3=O)c1)c1cccc(Br)c1 | 35 nM |
| O=C1NC(=O)c2cc(Nc3cccc(O)c3)c(Nc3ccccc3)cc21 | 1680 nM |
| O=c1[nH][nH]c(=O)c2cc(Nc3cccc(O)c3)c(Nc3ccccc3)cc12 | 3770 nM |
| Cn1nc(C(C)(C)C)cc1C(=O)Nc1cccc(Nc2cc3c(=O)[nH][nH]c(=O)c3cc2Cl)c1 | 293 nM |
| O=C(Nc1cccc(Nc2cc3c(=O)[nH][nH]c(=O)c3cc2Cl)c1)c1cccc(C(F)(F)F)c1 | 17 nM |
| O=C(Nc1cccc(Nc2cc3c(cc2Cl)C(=O)NC3=O)c1)c1cccc(I)c1 | 8 nM |
| O=C(Nc1cccc(Nc2cc3c(cc2Cl)C(=O)NC3=O)c1)c1cccc(Cl)c1 | 117 nM |
| O=C(Nc1cccc(Nc2cc3c(=O)[nH][nH]c(=O)c3cc2Cl)c1)c1cccc(Cl)c1 | 35 nM |
| O=C(Nc1cccc(Nc2cc3c(=O)[nH][nH]c(=O)c3cc2Cl)c1)c1cccc(Br)c1 | 19 nM |
| O=C(Nc1cccc(Nc2cc3c(cc2Cl)C(=O)NC3=O)c1)c1cccc(C(F)(F)F)c1 | 10 nM |
| O=C(Nc1cccc(Nc2cc3c(cc2Cl)C(=O)NC3=O)c1)c1cccc(OC(F)(F)F)c1 | 6 nM |
| O=c1[nH][nH]c(=O)c2cc(Nc3cccc(O)c3)c(Nc3cccc(O)c3)cc12 | 290 nM |
| NC(=O)c1ccc2[nH]cc(-c3cccc(O)c3)c2c1 | > 10000 nM |
| N#Cc1cccc(C(=O)Nc2cccc(Nc3cc4c(cc3Cl)C(=O)NC4=O)c2)c1 | 297 nM |
| O=C(Nc1cccc(Nc2cc3c(=O)[nH][nH]c(=O)c3cc2Cl)c1)c1cccc(OC(F)(F)F)c1 | 18 nM |
| O=C(Nc1cccc(Nc2cc3c(=O)[nH][nH]c(=O)c3cc2Cl)c1)c1cccc(I)c1 | 8 nM |
| Cn1nc(C(C)(C)C)cc1C(=O)Nc1cccc(Nc2cc3c(cc2Cl)C(=O)NC3=O)c1 | 349 nM |
| N#Cc1cccc(C(=O)Nc2cccc(Nc3cc4c(=O)[nH][nH]c(=O)c4cc3Cl)c2)c1 | 296 nM |
| O=C1NC(=O)c2cc(Nc3cccc(O)c3)c(Nc3cccc(O)c3)cc21 | 338 nM |
| O=C1NC(=O)c2cc3c(-c4cccc(O)c4)c[nH]c3cc21 | 3470 nM |

— ChEMBL document CHEMBL1921694, “Structure-based design of isoindoline-1,3-diones and 2,3-dihydrophthalazine-1,4-diones as novel B-Raf inhibitors” (Bioorg Med Chem Lett, 2011)
